Measured values taken from PubChem BioAssay AID1963965 (Molecular Pharmacology Branch, DTP, NCI, 2024).
Values belong to the compound of their own block, whether it stands above or below them.

Test system: 996289-038-R-J1-PDC spheroid viability
Experiment: Anticancer human tumor 996289-038-R-J1-PDC patient-derived colon adenocarcinoma cell line growth inhibition [PI3K]
Details: spheroids with HUVEC and MSC; for IC50: curve of first compound; for viability, T/C: stronger effect = lower value
Method in brief: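 Multi-cell spheroids combine tumor cells with HUVEC and human MSCs, treated with targeted agents alone or with inavolisib, alpelisib, duvelisib or copanlisib. Concentrations fall in half-log steps from at or near clinical Cmax, or from 10 microM where Cmax is unknown; viability read-out.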

[1] = second compound 0.0316 µM, first compound 0.0316 µM
[2] = second compound 0.0316 µM, first compound 0.1 µM
[3] = second compound 0.0316 µM, first compound 0.316 µM
[4] = second compound 0.0316 µM, first compound 1 µM
[5] = second compound 0.1 µM, first compound 0.0316 µM
[6] = second compound 0.1 µM, first compound 0.1 µM
[7] = second compound 0.1 µM, first compound 0.316 µM
[8] = second compound 0.1 µM, first compound 1 µM
[9] = second compound 0.316 µM, first compound 0.0316 µM
[10] = second compound 0.316 µM, first compound 0.1 µM
[11] = second compound 0.316 µM, first compound 0.316 µM
[12] = second compound 0.316 µM, first compound 1 µM
[13] = second compound 1 µM, first compound 0.0316 µM
[14] = second compound 1 µM, first compound 0.1 µM
[15] = second compound 1 µM, first compound 0.316 µM
[16] = second compound 1 µM, first compound 1 µM
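Note: spheroids exposed to compounds for seven days before viability read.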
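Throughout, for viability, T/C: luminescence used as a proxy for viable cell amount; percent viability relative to DMSO vehicle control as 100%.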

IC50 (second compound 0.0316 µM): > 1 µM | IC50 (second compound 0.1 µM): > 1 µM | IC50 (second compound 0.316 µM): > 1 µM | IC50 (second compound 1 µM): > 1 µM | IC50 (second compound 3.16 µM): > 1 µM | IC50 (second compound 10 µM): > 1 µM
Structure (SMILES): CCN1CCN(Cc2ccc(Nc3ncc(F)c(-c4cc(F)c5nc(C)n(C(C)C)c5c4)n3)nc2)CC1 + CC(Nc1ncnc2nc[nH]c12)c1cc2cccc(Cl)c2c(=O)n1-c1ccccc1
viability, T/C (second compound 0.0316 µM, first compound 0.00316 µM): 111% | viability, T/C (second compound 0.0316 µM, first compound 0.01 µM): 94.2% | viability, T/C [1]: 92.2% | viability, T/C [2]: 87.1% | viability, T/C [3]: 79% | viability, T/C [4]: 74.1% | viability, T/C (second compound 0.1 µM, first compound 0.00316 µM): 102% | viability, T/C (second compound 0.1 µM, first compound 0.01 µM): 96.4% | viability, T/C [5]: 91.8% | viability, T/C [6]: 86.7% | viability, T/C [7]: 76.7% | viability, T/C [8]: 80% | viability, T/C (second compound 0.316 µM, first compound 0.00316 µM): 96.2% | viability, T/C (second compound 0.316 µM, first compound 0.01 µM): 93.7% | viability, T/C [9]: 89.1% | viability, T/C [10]: 80.3% | viability, T/C [11]: 75% | viability, T/C [12]: 80.4% | viability, T/C (second compound 1 µM, first compound 0.00316 µM): 104% | viability, T/C (second compound 1 µM, first compound 0.01 µM): 88.5% | viability, T/C [13]: 86% | viability, T/C [14]: 79.8% | viability, T/C [15]: 76.8% | viability, T/C [16]: 70.7% | viability, T/C (second compound 3.16 µM, first compound 0.00316 µM): 98.1% | viability, T/C (second compound 3.16 µM, first compound 0.01 µM): 105% | viability, T/C (second compound 3.16 µM, first compound 0.0316 µM): 79.4% | viability, T/C (second compound 3.16 µM, first compound 0.1 µM): 86.6% | viability, T/C (second compound 3.16 µM, first compound 0.316 µM): 81% | viability, T/C (second compound 3.16 µM, first compound 1 µM): 68.8% | viability, T/C (second compound 10 µM, first compound 0.00316 µM): 82% | viability, T/C (second compound 10 µM, first compound 0.01 µM): 76% | viability, T/C (second compound 10 µM, first compound 0.0316 µM): 82.4% | viability, T/C (second compound 10 µM, first compound 0.1 µM): 74.3% | viability, T/C (second compound 10 µM, first compound 0.316 µM): 71% | viability, T/C (second compound 10 µM, first compound 1 µM): 58.6%

IC50 (second compound 0.00316 µM): 5.54 µM | IC50 (second compound 0.01 µM): 5.12 µM | IC50 (second compound 0.0316 µM): 4.48 µM | IC50 (second compound 0.1 µM): 3.46 µM | IC50 (second compound 0.316 µM): < 0.0316 µM | IC50 (second compound 1 µM): < 0.0316 µM
Structure (SMILES): CC1(C)CCC(Nc2ncc(C(F)(F)F)c(-c3c[nH]c4c(P(C)(C)=O)c(C#N)ccc34)n2)CN1 (centres undefined) + COc1c(OCCCN2CCOCC2)ccc2c3n(c(=NC(=O)c4cnc(N)nc4)nc12)CCN3
viability, T/C (second compound 0.00316 µM, first compound 0.0316 µM): 106% | viability, T/C (second compound 0.00316 µM, first compound 0.1 µM): 74.7% | viability, T/C (second compound 0.00316 µM, first compound 0.316 µM): 80% | viability, T/C (second compound 0.00316 µM, first compound 1 µM): 68.6% | viability, T/C (second compound 0.00316 µM, first compound 3.16 µM): 86.3% | viability, T/C (second compound 0.00316 µM, first compound 10 µM): 15% | viability, T/C (second compound 0.01 µM, first compound 0.0316 µM): 91.2% | viability, T/C (second compound 0.01 µM, first compound 0.1 µM): 78.9% | viability, T/C (second compound 0.01 µM, first compound 0.316 µM): 75.2% | viability, T/C (second compound 0.01 µM, first compound 1 µM): 75.8% | viability, T/C (second compound 0.01 µM, first compound 3.16 µM): 76.4% | viability, T/C (second compound 0.01 µM, first compound 10 µM): 13.6% | viability, T/C [1]: 71.8% | viability, T/C [2]: 65.2% | viability, T/C [3]: 63.7% | viability, T/C [4]: 64.6% | viability, T/C (second compound 0.0316 µM, first compound 3.16 µM): 66% | viability, T/C (second compound 0.0316 µM, first compound 10 µM): 13% | viability, T/C [5]: 59.5% | viability, T/C [6]: 53.4% | viability, T/C [7]: 52.1% | viability, T/C [8]: 49.7% | viability, T/C (second compound 0.1 µM, first compound 3.16 µM): 53.7% | viability, T/C (second compound 0.1 µM, first compound 10 µM): 8.16% | viability, T/C [9]: 34.6% | viability, T/C [10]: 30.2% | viability, T/C [11]: 34% | viability, T/C [12]: 34% | viability, T/C (second compound 0.316 µM, first compound 3.16 µM): 28.5% | viability, T/C (second compound 0.316 µM, first compound 10 µM): 6.2% | viability, T/C [13]: 17% | viability, T/C [14]: 14.3% | viability, T/C [15]: 15.9% | viability, T/C [16]: 17% | viability, T/C (second compound 1 µM, first compound 3.16 µM): 15.1% | viability, T/C (second compound 1 µM, first compound 10 µM): 4.85%
